Some test systems named below: NCI-H23; HL-60; RPMI-8226; MCF7; KM12; HCC 2998; SNB-19; MDA-MB-231; CAKI-1; MDA-N; U-251; UO-31; SK-MEL-28; Malme-3M; LOX IMVI; BT-549; SNB-75; IGROV-1; SF-268; ACHN.
What all share (assay): NCI anticancer screen, dose series, 48 h

We go through ten compounds from ChEMBL document CHEMBL1201862, “PubChem BioAssay data set” (2004).

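Each compound was tested at five concentrations against cells in 96-well plates for 48 hours. Abbreviation: GI50, concentration required for 50% inhibition of growth.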 Activity calls are given as the source filed them. No stated cut-off is given here; in the data, active = GI50 up to about 1.1 µM and inactive = higher. Some results are limits rather than exact numbers.

With `Cc1cc(NC(=O)NC(=O)c2ccccc2NC(=O)C(C)N)ccc1Oc1ncc(Br)cn1` (stereo not given), the GI50 is 0.172 µM (active) in the test on NCI-H23; 0.0131 µM (active) in the test with HL-60; 0.207 µM (active) in the test on RPMI-8226; 0.152 µM (active) in the test on MCF7; 0.169 µM (active) in the test on KM12; 0.298 µM (active) in the test on HCC 2998. Further, the GI50 is 0.248 µM (active) in the test with SNB-19; 0.143 µM (active) with MDA-MB-231; 0.0173 µM (active) in the test on CAKI-1; 0.0202 µM (active) in the test with MDA-N; 0.202 µM (active) with U-251; 0.216 µM (active) with UO-31. The GI50 in the test on SK-MEL-28 is 0.184 µM (active); in the test on Malme-3M, 0.188 µM (active); in the test with LOX IMVI it was 0.173 µM (active); with BT-549 it was 26.8 µM (inactive); in the test on SNB-75, < 0.01 µM (active); with IGROV-1, 0.153 µM (active). The GI50 in the test with SF-268 is 0.408 µM (active); in the test with ACHN, 1.22 µM (inactive).

On to `C=C1C[C@H](O)[C@H](Br)C(C)(C)C12CCC(C)(Cl)C(Br)C2` (stereo not given in full), for which the GI50 in the test on NCI-H23 was 0.445 µM (active); with HL-60, 0.508 µM (active); with RPMI-8226, 0.589 µM (active); with MCF7, 3.25 µM (inactive); in the test on KM12, 1.48 µM (inactive); in the test on HCC 2998 it was 5.52 µM (inactive). Moreover, the GI50 is 1.23 µM (inactive) in the test on SNB-19; 2.72 µM (inactive) in the test with MDA-MB-231; 5.09 µM (inactive) with CAKI-1; 1.39 µM (inactive) with MDA-N; 0.272 µM (active) in the test on U-251; 7.93 µM (inactive) in the test with UO-31. Also, the GI50 in the test with SK-MEL-28 is 7.74 µM (inactive); in the test with Malme-3M it was 5.87 µM (inactive); in the test on LOX IMVI it was 10 µM (inactive); in the test with BT-549, 7.53 µM (inactive); in the test with SNB-75, 1.94 µM (inactive); in the test on IGROV-1, 4.38 µM (inactive). In addition, the GI50 in the test with SF-268 was 6.87 µM (inactive); in the test on ACHN it was 5.05 µM (inactive).

On to `C/C=C(\N=C=S)C(=O)OC1C(COC(C)=O)OC([C@]2(O)CC(=O)C(N)=C(C(=O)O)C2=O)C(O)C1OC1CC(OC)C(O)([C@@H](C)OC(=O)[C@@H](C)CC)C(C)O1` (stereo not given in full), for which the GI50 in the test with NCI-H23 is 9.84 µM (inactive); in the test with HL-60, 2.12 µM (inactive); with RPMI-8226, 2.11 µM (inactive); with MCF7, 14.5 µM (inactive); in the test on KM12, 7.94 µM (inactive); in the test on HCC 2998, 18.9 µM (inactive). For the same compound, the GI50 is 11.9 µM (inactive) in the test on SNB-19; 19.6 µM (inactive) in the test on MDA-MB-231; 19.6 µM (inactive) in the test on CAKI-1; 13.2 µM (inactive) in the test with MDA-N; 9.27 µM (inactive) with U-251; 18.2 µM (inactive) with UO-31. In addition, the GI50 with SK-MEL-28 was 7.66 µM (inactive); with Malme-3M, 9.57 µM (inactive); with LOX IMVI it was 6.34 µM (inactive); with BT-549, 7.43 µM (inactive); in the test with SNB-75, 16.9 µM (inactive); in the test with IGROV-1 it was 17.7 µM (inactive). The GI50 is 9.57 µM (inactive) in the test with SF-268 and 18.3 µM (inactive) in the test with ACHN.

For the compound `COc1ccc2cc(CN3CCC(C4CCNCC4)CC3)ccc2c1`, the GI50 in the test with NCI-H23 was 12 µM (inactive); in the test on HL-60, 1.49 µM (inactive); with RPMI-8226, 1.53 µM (inactive); with MCF7, 2.11 µM (inactive); in the test with KM12, 2.11 µM (inactive); with HCC 2998, 0.412 µM (active). Besides, the GI50 in the test on SNB-19 was 6.65 µM (inactive); with MDA-MB-231, 2.2 µM (inactive); in the test on CAKI-1 it was 2.48 µM (inactive); in the test with MDA-N, 2.02 µM (inactive); in the test on U-251, 1.91 µM (inactive); with UO-31, 2.45 µM (inactive). Moreover, the GI50 was 1.75 µM (inactive) in the test on SK-MEL-28; 1.72 µM (inactive) in the test with Malme-3M; 1.6 µM (inactive) in the test on LOX IMVI; 8.67 µM (inactive) with BT-549; 1.91 µM (inactive) in the test with SNB-75; 3.7 µM (inactive) in the test on IGROV-1. Further, the GI50 is 2.58 µM (inactive) in the test with SF-268 and 3.61 µM (inactive) in the test with ACHN.

On to `CCOC(=O)CCc1cc(=O)oc2cc(O)cc(O)c12`, for which the GI50 was > 100 µM (inactive) with NCI-H23; > 100 µM (inactive) with HL-60; > 100 µM (inactive) in the test on RPMI-8226; > 100 µM (inactive) with MCF7; > 100 µM (inactive) in the test on KM12; 52.7 µM (inactive) in the test with HCC 2998. In addition, the GI50 in the test on SNB-19, with MDA-MB-231, in the test with CAKI-1, in the test with MDA-N, in the test on U-251 and with UO-31 was > 100 µM (inactive) in each case. In addition, the GI50 with SK-MEL-28, with Malme-3M, in the test with LOX IMVI, in the test with BT-549, in the test with SNB-75 and in the test on IGROV-1 was > 100 µM (inactive) in each case. Besides, the GI50 in the test on SF-268 and in the test on ACHN was > 100 µM (inactive) each time.

Turning to `CC1(C)C/C=C\CCC(O)C(O)CCC(C)(C)C1=O` (stereo not given), the GI50 with NCI-H23 was > 100 µM (inactive); in the test with HL-60, > 100 µM (inactive); in the test with RPMI-8226 it was > 100 µM (inactive); in the test on MCF7, > 100 µM (inactive); in the test with KM12, > 100 µM (inactive); with HCC 2998 it was 17.1 µM (inactive). For the same compound, the GI50 in the test on SNB-19, in the test on MDA-MB-231, with CAKI-1, in the test with MDA-N, with U-251 and in the test on UO-31 was > 100 µM (inactive) throughout. For the same compound, the GI50 in the test with SK-MEL-28, in the test with Malme-3M, in the test with LOX IMVI, in the test with BT-549, with SNB-75 and in the test on IGROV-1 was > 100 µM (inactive) throughout. Moreover, the GI50 in the test on SF-268 and in the test on ACHN was > 100 µM (inactive) throughout.

Consider `N#Cc1cccc(N2C(=O)C3C4C=CC(C3C2=O)C2C(=O)N(c3cccc(C#N)c3)C(=O)C42)c1` (stereo not given), for which the GI50 was 27.6 µM (inactive) in the test with NCI-H23; > 80.9 µM (inactive) with HL-60; > 56.2 µM (inactive) in the test on RPMI-8226; > 100 µM (inactive) in the test with MCF7; > 56.2 µM (inactive) in the test on KM12; > 56.2 µM (inactive) with HCC 2998. Also, the GI50 is 31.2 µM (inactive) in the test with SNB-19; > 51.5 µM (inactive) in the test with MDA-MB-231; 55.5 µM (inactive) in the test on CAKI-1; > 100 µM (inactive) with MDA-N; 10.1 µM (inactive) with U-251; 49.1 µM (inactive) with UO-31. Besides, the GI50 in the test with SK-MEL-28 was > 63.1 µM (inactive); in the test with Malme-3M, 53.6 µM (inactive); with LOX IMVI it was 61.9 µM (inactive); in the test on BT-549, 17.7 µM (inactive); with SNB-75, 6.12 µM (inactive); with IGROV-1, 29.7 µM (inactive). In addition, the GI50 was 19.8 µM (inactive) in the test with SF-268 and 40.7 µM (inactive) in the test on ACHN.

With `CC(C)=CC[C@]12CCN[C@H]1N(S(=O)(=O)c1ccccc1)c1ccccc12`, the GI50 in the test with NCI-H23 was > 100 µM (inactive); in the test with HL-60, 17.8 µM (inactive); with RPMI-8226, 18.3 µM (inactive); in the test with MCF7, 18.2 µM (inactive); in the test with KM12, 22 µM (inactive); in the test on HCC 2998, 16.7 µM (inactive). Moreover, the GI50 was 21.5 µM (inactive) in the test on SNB-19; 19 µM (inactive) in the test on MDA-MB-231; 20.1 µM (inactive) in the test with CAKI-1; 15.2 µM (inactive) in the test with MDA-N; 16 µM (inactive) in the test on U-251; 13.8 µM (inactive) with UO-31. In addition, the GI50 with SK-MEL-28 was 16.4 µM (inactive); in the test with Malme-3M it was 16.3 µM (inactive); in the test on LOX IMVI, 15.9 µM (inactive); in the test with BT-549, 17.1 µM (inactive); in the test on SNB-75 it was 17.1 µM (inactive); with IGROV-1 it was 10.6 µM (inactive). Moreover, the GI50 was 14.8 µM (inactive) in the test on SF-268 and 21.1 µM (inactive) with ACHN.

Regarding `CCN(CC)c1ccc(/C=C/C2=NN(c3cccc(S(=O)(=O)O)c3)C3(C2)C(Cl)C(=O)N3c2nc3ccccc3s2)cc1` (stereo not given), the GI50 with NCI-H23 is 7.01 µM (inactive); with HL-60, 1.89 µM (inactive); with RPMI-8226 it was 2.32 µM (inactive); in the test on MCF7, 6.7 µM (inactive); in the test with KM12 it was 7.83 µM (inactive); in the test on HCC 2998 it was 7.36 µM (inactive). Also, the GI50 in the test on SNB-19 is 12.5 µM (inactive); in the test with MDA-MB-231, 7.8 µM (inactive); in the test with CAKI-1 it was 3.48 µM (inactive); in the test on MDA-N, 12.4 µM (inactive); in the test with U-251, 3.4 µM (inactive); in the test with UO-31, 1.72 µM (inactive). Moreover, the GI50 in the test on SK-MEL-28 was 20.7 µM (inactive); in the test on Malme-3M it was 11.1 µM (inactive); in the test on LOX IMVI, 2.82 µM (inactive); in the test on BT-549, 9.25 µM (inactive); with SNB-75, 11.1 µM (inactive); in the test on IGROV-1, 4.88 µM (inactive). The figures for the GI50 with SF-268 and in the test with ACHN were 16.8 µM (inactive) and 10.9 µM (inactive), respectively.

In the case of `Oc1cc(-c2ccc(F)cc2)nc2ncc(Cl)cc12`, the GI50 in the test on NCI-H23 was 38.2 µM (inactive); in the test on HL-60, 3.38 µM (inactive); with RPMI-8226 it was 19 µM (inactive); in the test on MCF7, 12.3 µM (inactive); in the test on KM12 it was 6.17 µM (inactive); in the test with HCC 2998 it was 58.6 µM (inactive). Besides, the GI50 in the test with SNB-19 was 38 µM (inactive); in the test on MDA-MB-231 it was > 65.5 µM (inactive); in the test with CAKI-1 it was 33 µM (inactive); in the test with MDA-N it was 2.94 µM (inactive); in the test with U-251, 21.7 µM (inactive); in the test with UO-31 it was > 85.9 µM (inactive). Besides, the GI50 in the test with SK-MEL-28 is 58.5 µM (inactive); with Malme-3M, 15.7 µM (inactive); with LOX IMVI, 28.6 µM (inactive); with BT-549, > 100 µM (inactive); in the test with SNB-75, 11.7 µM (inactive); with IGROV-1, 17.1 µM (inactive). The GI50 in the test with SF-268 was 67 µM (inactive); with ACHN, > 73.1 µM (inactive).
